Results from PMC10590419, “Structural and mechanistic insights into the inhibition of respiratory syncytial virus polymerase by a non-nucleoside inhibitor” (Communications Biology, 2023).
Read-outs that look alike come from different tables or passages of the source.

Experiments:
[1] = test system: PIV-1 (recombinant Washington/20993/1964-derived strain encoding GFP); type: cell-based, parainfluenza virus type 1
[2] = target: recombinant RSV L+P (Human respiratory syncytial virus A, UniProt P28887); assay: Primed single nucleotide incorporation (SNI) gel assay, recombinant RSV L+P; type: biochemical, Human RSV (strain A2)
recombinant RSV L+P, sequence (P28887 whole entry): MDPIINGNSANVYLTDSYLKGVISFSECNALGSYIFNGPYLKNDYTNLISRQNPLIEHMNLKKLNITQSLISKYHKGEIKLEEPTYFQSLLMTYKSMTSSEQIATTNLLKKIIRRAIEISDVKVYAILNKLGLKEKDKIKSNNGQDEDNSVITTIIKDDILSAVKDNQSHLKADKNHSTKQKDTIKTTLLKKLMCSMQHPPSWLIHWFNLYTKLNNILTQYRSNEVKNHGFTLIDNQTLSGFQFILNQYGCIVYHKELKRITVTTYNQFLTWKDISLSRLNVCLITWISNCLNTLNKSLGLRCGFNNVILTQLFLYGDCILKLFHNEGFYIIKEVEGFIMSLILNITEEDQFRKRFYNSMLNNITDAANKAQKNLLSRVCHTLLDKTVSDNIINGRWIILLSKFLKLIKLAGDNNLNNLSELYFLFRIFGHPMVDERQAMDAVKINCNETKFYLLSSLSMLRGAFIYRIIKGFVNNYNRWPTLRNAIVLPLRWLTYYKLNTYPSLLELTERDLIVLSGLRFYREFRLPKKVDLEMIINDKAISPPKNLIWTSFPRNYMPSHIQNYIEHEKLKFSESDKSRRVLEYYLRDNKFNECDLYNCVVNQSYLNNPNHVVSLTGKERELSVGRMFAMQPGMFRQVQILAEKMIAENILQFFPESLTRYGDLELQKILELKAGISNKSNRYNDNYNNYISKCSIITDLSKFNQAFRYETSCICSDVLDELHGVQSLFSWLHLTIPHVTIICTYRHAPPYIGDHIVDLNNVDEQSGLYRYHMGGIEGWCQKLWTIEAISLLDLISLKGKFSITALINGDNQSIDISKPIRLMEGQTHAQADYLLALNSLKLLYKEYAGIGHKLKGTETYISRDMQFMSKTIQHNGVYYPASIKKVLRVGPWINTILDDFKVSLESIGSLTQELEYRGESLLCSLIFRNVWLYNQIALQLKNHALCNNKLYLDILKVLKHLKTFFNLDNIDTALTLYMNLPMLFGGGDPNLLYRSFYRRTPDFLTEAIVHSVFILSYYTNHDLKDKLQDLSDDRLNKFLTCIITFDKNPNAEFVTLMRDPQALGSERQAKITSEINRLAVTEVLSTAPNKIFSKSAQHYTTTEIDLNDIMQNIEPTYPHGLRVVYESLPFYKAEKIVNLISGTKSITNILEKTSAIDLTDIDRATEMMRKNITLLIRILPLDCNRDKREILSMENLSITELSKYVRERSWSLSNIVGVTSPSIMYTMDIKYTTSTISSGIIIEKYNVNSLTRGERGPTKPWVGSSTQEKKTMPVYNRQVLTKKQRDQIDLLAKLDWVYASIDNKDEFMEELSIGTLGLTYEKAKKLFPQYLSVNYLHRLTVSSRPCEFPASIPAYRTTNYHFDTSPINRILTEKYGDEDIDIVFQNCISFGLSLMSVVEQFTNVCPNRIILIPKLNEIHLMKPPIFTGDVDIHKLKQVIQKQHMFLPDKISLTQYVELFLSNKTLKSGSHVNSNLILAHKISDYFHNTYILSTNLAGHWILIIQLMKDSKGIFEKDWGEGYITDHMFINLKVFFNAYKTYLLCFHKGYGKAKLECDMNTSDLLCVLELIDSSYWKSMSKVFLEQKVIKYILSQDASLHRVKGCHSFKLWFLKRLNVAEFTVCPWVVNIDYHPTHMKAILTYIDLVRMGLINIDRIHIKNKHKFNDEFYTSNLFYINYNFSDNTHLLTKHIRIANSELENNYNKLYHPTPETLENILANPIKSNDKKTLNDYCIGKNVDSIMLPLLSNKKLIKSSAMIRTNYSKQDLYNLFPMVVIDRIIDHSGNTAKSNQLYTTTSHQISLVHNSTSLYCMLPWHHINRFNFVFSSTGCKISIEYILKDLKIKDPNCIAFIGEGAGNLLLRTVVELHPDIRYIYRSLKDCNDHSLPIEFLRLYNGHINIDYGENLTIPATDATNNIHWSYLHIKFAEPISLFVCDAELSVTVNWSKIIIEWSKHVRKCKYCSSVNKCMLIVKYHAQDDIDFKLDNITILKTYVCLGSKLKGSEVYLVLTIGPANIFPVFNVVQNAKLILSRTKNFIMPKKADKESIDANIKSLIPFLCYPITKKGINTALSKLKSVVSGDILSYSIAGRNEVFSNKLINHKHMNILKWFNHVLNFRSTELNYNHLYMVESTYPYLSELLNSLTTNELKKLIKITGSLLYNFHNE
recombinant RSV L+P, sequence (P03421 whole entry, further chain): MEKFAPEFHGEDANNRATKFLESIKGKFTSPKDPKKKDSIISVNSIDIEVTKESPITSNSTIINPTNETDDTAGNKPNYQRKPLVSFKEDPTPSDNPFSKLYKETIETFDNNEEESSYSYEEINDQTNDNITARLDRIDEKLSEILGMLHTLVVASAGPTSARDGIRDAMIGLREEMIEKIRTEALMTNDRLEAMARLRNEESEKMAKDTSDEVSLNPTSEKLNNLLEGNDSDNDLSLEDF
Method: RNA polymerase reaction samples consisted of 0.2 μM recombinant RSV L-P polymerase, 0.2 μM of an RNA template (Le11 or Tr14), and 400 μM of a short primer (sequences as indicated in the figures), mixed in a buffer containing 50 mM Tris pH 7.4, 2 mM dithiothreitol and 6 mM MgCl2. For the assay in Fig. 1d, reactions were started by adding 100 nM [α-^32P]GTP (3000 Ci/mmol) tracer and incubated at 30 °C for 10 min. […] Reactions were stopped by adding an equal volume of gel loading buffer containing 90% formamide, 50 mM EDTA, 0.05% Xylene Cyanol, and Bromophenol Blue. Samples were denatured at 95 °C for 5 min and run on a 22.5% polyacrylamide urea sequencing gel at 80 W. The gel was transferred onto a Whatman cellulose chromatography paper (Millipore Sigma) and dried on a gel dryer (Bio-Rad) for 1 h. The dried gel was exposed to a phosphor-screen, scanned on a Typhoon phosphorimager (GE Healthcare), and quantified using ImageQuant (GE Healthcare).

[3] = 5 µM, le-11, +1 site, replicates, 5 µM
[4] = 5 µM, le-11, +3 site, replicates, 5 µM
[5] = 5 µM, tr-14, +1 site, replicates, 5 µM
[6] = le-11, +1 site, 0.00390625 uM, replicates, 0.00390625 µM
[7] = le-11, +1 site, 0.0078125 uM, replicates, 0.0078125 µM
[8] = le-11, +1 site, 0.015625 uM, replicates, 0.015625 µM
[9] = le-11, +1 site, 0.03125 uM, replicates, 0.03125 µM
[10] = le-11, +1 site, 0.0625 uM, replicates, 0.0625 µM
[11] = le-11, +1 site, 0.125 uM, replicates, 0.125 µM
[12] = le-11, +1 site, 0.25 uM, replicates, 0.25 µM

SMILES: COc1cc(C(=O)NC[C@](O)(c2cc(C(C)(C)O)c(F)c(-c3ccc(F)cc3)n2)C(F)(F)F)cc2cc(C)nnc12 [JNJ-8003]
- inhibition (in words) [1]: negligible inhibition
- inhibition at 5 µM ([2]; 5 µM, le-11, +1 site, N 2, read-out: % inhibition of SNI, AC>ACG, average): 88.8%
- inhibition at 5 µM ([2]; 5 µM, le-11, +1 site, N 2, read-out: % inhibition of SNI, ACG>ACGC, average): 2.75%
- inhibition at 5 µM ([2]; 5 µM, le-11, +1 site, N 2, read-out: % inhibition of SNI, ACGC>ACGCG, average): 94.8%
- inhibition at 5 µM ([2]; 5 µM, le-11, +1 site, N 2, read-out: % inhibition of SNI, ACGCG>ACGCGA, average): 96.9%
- inhibition at 5 µM ([2]; 5 µM, le-11, +1 site, N 2, read-out: % inhibition of SNI, ACGCGA>ACGCGAA, average): 85.3%
- % inhibition of SNI, AC>ACG [2, 3]: 88.48%
- % inhibition of SNI, ACGC>ACGCG [2, 3]: 96.78%
- % inhibition of SNI, ACGCG>ACGCGA [2, 3]: 98.45%
- % inhibition of SNI, ACGCGA>ACGCGAA [2, 3]: 88.02%
- inhibition at 5 µM ([2]; 5 µM, le-11, +1 site, replicates, read-out: % inhibition of SNI, AC>ACG): 89%
- inhibition at 5 µM ([2]; 5 µM, le-11, +1 site, replicates, read-out: % inhibition of SNI, ACGC>ACGCG): 92.7%
- inhibition at 5 µM ([2]; 5 µM, le-11, +1 site, replicates, read-out: % inhibition of SNI, ACGCG>ACGCGA): 95.4%
- inhibition at 5 µM ([2]; 5 µM, le-11, +1 site, replicates, read-out: % inhibition of SNI, ACGCGA>ACGCGAA): 82.6%
- inhibition at 5 µM ([2]; 5 µM, le-11, +3 site, N 2, read-out: % inhibition of SNI, GC>GCG, average): 96.5%
- inhibition at 5 µM ([2]; 5 µM, le-11, +3 site, N 2, read-out: % inhibition of SNI, GCG>GCGA, average): 74.8%
- inhibition at 5 µM ([2]; 5 µM, le-11, +3 site, N 2, read-out: % inhibition of SNI, GCGA>GCGAA, average): 97.6%
- inhibition at 5 µM ([2]; 5 µM, le-11, +3 site, N 2, read-out: % inhibition of SNI, GCGAA>GCGAAA, average): 93.8%
- % inhibition of SNI, GC>GCG [2, 4]: 97.71%
- % inhibition of SNI, GCG>GCGA [2, 4]: 79.85%
- % inhibition of SNI, GCGA>GCGAA [2, 4]: 98.25%
- % inhibition of SNI, GCGAA>GCGAAA [2, 4]: 91.04%
- inhibition at 5 µM ([2]; 5 µM, le-11, +3 site, replicates, read-out: % inhibition of SNI, GC>GCG): 95.3%
- inhibition at 5 µM ([2]; 5 µM, le-11, +3 site, replicates, read-out: % inhibition of SNI, GCG>GCGA): 69.8%
- inhibition at 5 µM ([2]; 5 µM, le-11, +3 site, replicates, read-out: % inhibition of SNI, GCGA>GCGAA): 97%
- inhibition at 5 µM ([2]; 5 µM, le-11, +3 site, replicates, read-out: % inhibition of SNI, GCGAA>GCGAAA): 96.5%
- inhibition at 5 µM ([2]; 5 µM, tr-14, +1 site, N 2, read-out: % inhibition of SNI, AC>ACG, average): 88.2%
- inhibition at 5 µM ([2]; 5 µM, tr-14, +1 site, N 2, read-out: % inhibition of SNI, ACG>ACGA, average): 8.03%
- inhibition at 5 µM ([2]; 5 µM, tr-14, +1 site, N 2, read-out: % inhibition of SNI, ACGA>ACGAG, average): 95%
- inhibition at 5 µM ([2]; 5 µM, tr-14, +1 site, N 2, read-out: % inhibition of SNI, ACGAG>ACGAGA, average): 88.8%
- inhibition at 5 µM ([2]; 5 µM, tr-14, +1 site, N 2, read-out: % inhibition of SNI, ACGAGA>ACGAGAA, average): 90%
- % inhibition of SNI, AC>ACG [2, 5]: 84.25%
- % inhibition of SNI, ACGA>ACGAG [2, 5]: 93.02%
- % inhibition of SNI, ACGAG>ACGAGA [2, 5]: 89.36%
- % inhibition of SNI, ACGAGA>ACGAGAA [2, 5]: 89.66%
- inhibition at 5 µM ([2]; 5 µM, tr-14, +1 site, replicates, read-out: % inhibition of SNI, AC>ACG): 92.2%
- inhibition at 5 µM ([2]; 5 µM, tr-14, +1 site, replicates, read-out: % inhibition of SNI, ACGA>ACGAG): 96.9%
- inhibition at 5 µM ([2]; 5 µM, tr-14, +1 site, replicates, read-out: % inhibition of SNI, ACGAG>ACGAGA): 88.2%
- inhibition at 5 µM ([2]; 5 µM, tr-14, +1 site, replicates, read-out: % inhibition of SNI, ACGAGA>ACGAGAA): 90.3%
- SNI to the 3-mer primer from the +1 site (in words) ([2]; le and tr promoter RNA): did not inhibit
- pACG formation, % inhibition [2, 6]: 21.7616%
- pACGCG formation, % inhibition [2, 6]: 22.5312%
- inhibition at 0.00390625 µM ([2]; le-11, +1 site, 0.00390625 uM, replicates, read-out: pACG formation, % inhibition): 15.7%
- inhibition at 0.00390625 µM ([2]; le-11, +1 site, 0.00390625 uM, replicates, read-out: pACGC formation, % inhibition): 22.3%
- inhibition at 0.00390625 µM ([2]; le-11, +1 site, 0.00390625 uM, replicates, read-out: pACGCG formation, % inhibition): 29.7%
- pACG formation, % inhibition [2, 7]: 22.0299%
- pACGCG formation, % inhibition [2, 7]: 31.4378%
- inhibition at 0.0078125 µM ([2]; le-11, +1 site, 0.0078125 uM, replicates, read-out: pACG formation, % inhibition): 27.9%
- inhibition at 0.0078125 µM ([2]; le-11, +1 site, 0.0078125 uM, replicates, read-out: pACGC formation, % inhibition): 23.6%
- inhibition at 0.0078125 µM ([2]; le-11, +1 site, 0.0078125 uM, replicates, read-out: pACGCG formation, % inhibition): 35.9%
- pACG formation, % inhibition [2, 8]: 38.1202%
- pACGCG formation, % inhibition [2, 8]: 40.5036%
- inhibition at 0.015625 µM ([2]; le-11, +1 site, 0.015625 uM, replicates, read-out: pACG formation, % inhibition): 38.1%
- inhibition at 0.015625 µM ([2]; le-11, +1 site, 0.015625 uM, replicates, read-out: pACGC formation, % inhibition): 28%
- inhibition at 0.015625 µM ([2]; le-11, +1 site, 0.015625 uM, replicates, read-out: pACGCG formation, % inhibition): 35%
- pACG formation, % inhibition [2, 9]: 56.5591%
- pACGCG formation, % inhibition [2, 9]: 63.5179%
- inhibition at 0.03125 µM ([2]; le-11, +1 site, 0.03125 uM, replicates, read-out: pACG formation, % inhibition): 61.9%
- inhibition at 0.03125 µM ([2]; le-11, +1 site, 0.03125 uM, replicates, read-out: pACGC formation, % inhibition): 28.5%
- inhibition at 0.03125 µM ([2]; le-11, +1 site, 0.03125 uM, replicates, read-out: pACGCG formation, % inhibition): 63.6%
- pACG formation, % inhibition [2, 10]: 90.7902%
- pACGCG formation, % inhibition [2, 10]: 93.3045%
- inhibition at 0.0625 µM ([2]; le-11, +1 site, 0.0625 uM, replicates, read-out: pACG formation, % inhibition): 93.3%
- inhibition at 0.0625 µM ([2]; le-11, +1 site, 0.0625 uM, replicates, read-out: pACGC formation, % inhibition): 29.3%
- inhibition at 0.0625 µM ([2]; le-11, +1 site, 0.0625 uM, replicates, read-out: pACGCG formation, % inhibition): 92.5%
- pACG formation, % inhibition [2, 11]: 92.6859%
- pACGCG formation, % inhibition [2, 11]: 94.8621%
- inhibition at 0.125 µM ([2]; le-11, +1 site, 0.125 uM, replicates, read-out: pACG formation, % inhibition): 94.3%
- inhibition at 0.125 µM ([2]; le-11, +1 site, 0.125 uM, replicates, read-out: pACGC formation, % inhibition): 30.8%
- inhibition at 0.125 µM ([2]; le-11, +1 site, 0.125 uM, replicates, read-out: pACGCG formation, % inhibition): 94.8%
- pACG formation, % inhibition [2, 12]: 91.0112%
- pACGCG formation, % inhibition [2, 12]: 93.3897%
- inhibition at 0.25 µM ([2]; le-11, +1 site, 0.25 uM, replicates, read-out: pACG formation, % inhibition): 94.2%
- inhibition at 0.25 µM ([2]; le-11, +1 site, 0.25 uM, replicates, read-out: pACGC formation, % inhibition): 17.7%
- inhibition at 0.25 µM ([2]; le-11, +1 site, 0.25 uM, replicates, read-out: pACGCG formation, % inhibition): 95.2%
- pACG formation, % inhibition ([2]; le-11, +1 site, 0.5 uM, replicates, 0.5 µM): 89.7151%
